Results: patent US20060199816A1, “Aryl sulfonyl piperidines” (priority 2005, published 2006)

Molecular target: human HSD1 (Homo sapiens, UniProt P28845)
Experiment: in vitro inhibition of 11β-HSD1 (cortisone to cortisol conversion, time-resolved fluorescence)
Format: biochemical
Settings: purified human HSD1, cortisone substrate, NADPH, 30 min incubation, time-resolved fluorescence readout; read-out: hHSD1 IC50
Description: Purified human HSD1 was diluted in 50 mM Tris-HCl, 100 mM NaCl, 0.1 mg/ml BSA, 0.02% Lubrol, 20 mM MgCl2, 10 mM glucose 6-phosphate, 0.4 mM NADPH, 60 U/ml glucose 6-phosphate dehydrogenase to a concentration of 1.5 ug/ml (Enzyme Solution). Cortisone (100 uM) in DMSO was diluted to 1 uM with 50 mM Tris-HCl, 100 mM NaCl (Substrate Solution). Testing compounds (40 uM) in DMSO was diluted 3 fold in series in DMSO and further diluted 20 fold in Substrate Solution. Enzyme Solution (10 ul/well) was added into 384 well microtiter plates followed by diluted compound solutions (10 ul/well) and mixed well. Samples were then incubated at […] for 30 min. EDTA/biotin-cortisol solution (10 ul/well) in 28 mM EDTA, 100 nM biotin-cortisol, 50 mM Tris-HCl, 100 mM NaCl was then added followed by 5 ul/well of anti-cortisol antibody (3.2 ug/ml) in 50 mM Tris-HCl, 100 mM NaCl, 0.1 mg/ml BSA and the solution was incubated at 37 degrees for 30 min. Five ul per well of Eu-conjugated anti-mouse IgG (16 nM) and APC-conjugated streptavidin (160 nM) in 50 mM Tris-HCl, 100 mM NaCl, 0.1 mg/ml BSA was added and the solution was incubated at room temperature for 2 hours. Signals were quantitated by reading time-resolved fluorescence on a Victor 5 reader (Wallac).
Percent inhibition of HSD1 activity by an agent at various concentrations was calculated by the formula % Inhibition=100*[1−(Fs−Fb)/(Ft−Fb)], where: • Fs is the fluorescence signal of the sample which included the agent, • Fb is the fluorescence signal in the absence of HSD1 and agent, • Ft is the fluorescence signal in the presence of HSD1, but no agent.
The inhibitory activities of test compounds were determined by the IC50s, or the concentration of compound that gave 50% inhibition.

Chain of human HSD1 (P28845 whole entry): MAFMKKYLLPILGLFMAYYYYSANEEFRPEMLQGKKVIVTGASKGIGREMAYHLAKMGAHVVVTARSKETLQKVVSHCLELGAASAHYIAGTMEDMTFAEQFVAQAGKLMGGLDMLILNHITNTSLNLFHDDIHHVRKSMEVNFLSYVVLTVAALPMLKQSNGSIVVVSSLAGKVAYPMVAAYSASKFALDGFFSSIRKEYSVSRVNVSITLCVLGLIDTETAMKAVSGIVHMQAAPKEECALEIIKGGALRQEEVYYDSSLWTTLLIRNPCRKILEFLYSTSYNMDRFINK

| SMILES | IC50 [nM] |
| --- | --- |
| CC(C)CCNC(=O)[C@@H]1CCCN(S(=O)(=O)c2ccccc2Cl)C1 [Example 2, (3R)-1-(2-Chloro-benzenesulfonyl)-piperidine-3-carboxylic acid (3-methyl-butyl)-amide] | 290 |
| O=C(NCc1cccc2ccccc12)C1CCCN(S(=O)(=O)c2ccccc2Cl)C1 (stereo not drawn) [Example 43, 1-(2-Chloro-benzenesulfonyl)-piperidine-3-carboxylic acid (naphthalen-1-ylmethyl)-amide] | 25 |
| Cc1c(Cl)cccc1S(=O)(=O)N1CCCC(C(=O)NCCCc2ccccc2)C1 (stereo not drawn) [Example 80, 1-(3-Chloro-2-methyl-benzenesulfonyl)-piperidine-3-carboxylic acid (3-phenyl-propyl)-amide] | 12000 |
| CC(C)c1ccc(S(=O)(=O)N2CCCC(C(=O)NC3CCCCC3)C2)cc1 (stereo not drawn) [Example 135, 1-(4-Isopropyl-benzenesulfonyl)-piperidine-3-carboxylic acid cyclohexylamide] | 390 |
| O=C(NCCc1cccc(Cl)c1)C1CCCN(S(=O)(=O)c2cccc3cccnc23)C1 (stereo not drawn) [Example 157, 1-(Quinoline-8-sulfonyl)-piperidine-3-carboxylic acid [2-(3-chloro-phenyl)-ethyl]-amide] | 910 |
| CCC(COC)NC(=O)C1CCCN(S(=O)(=O)c2ccccc2)C1 (stereo not drawn) [Example 173, 1-Benzenesulfonyl-piperidine-3-carboxylic acid (1-methoxymethyl-propyl)-amide] | 940 |

Further lines, results first:

| IC50 [nM] | SMILES |
| --- | --- |
| 31 | CC(CNC(=O)C1CCCN(S(=O)(=O)c2ccccc2Cl)C1)c1ccccc1 (stereo not drawn) [Example 50] |
| 47 | O=C(NC1CCCCC1)C1CCCN(S(=O)(=O)c2ccc3ccccc3c2)C1 (stereo not drawn) [Example 73, 1-(Naphthalene-2-sulfonyl)-piperidine-3-carboxylic acid cyclohexylamide] |
| 3000 | Cc1ccccc1CNC(=O)C1CCCN(S(=O)(=O)c2ccc(F)cc2)C1 (stereo not drawn) [Example 128, 1-(4-Fluoro-benzenesulfonyl)-piperidine-3-carboxylic acid 2-methyl-benzylamide] |
| 390 | O=C(NC1CCc2ccccc21)C1CCCN(S(=O)(=O)c2ccccc2)C1 (stereo not drawn) [Example 169, 1-Benzenesulfonyl-piperidine-3-carboxylic acid indan-1-ylamide] |
| 3000 | Cc1ccccc1CNC(=O)C1CCCN(S(=O)(=O)c2ccccc2)C1 (stereo not drawn) [Example 175, 1-Benzenesulfonyl-piperidine-3-carboxylic acid 2-methyl-benzylamide] |
| 190 | O=C(NC1CCCc2ccccc21)C1CCCN(S(=O)(=O)c2cccs2)C1 (stereo not drawn) [Example 187, 1-(Thiophene-2-sulfonyl)-piperidine-3-carboxylic acid (1,2,3,4-tetrahydro-naphthalen-1-yl)-amide] |
